Experimental data taken from ChEMBL document CHEMBL4483862, “Open-source discovery of chemical leads for next-generation chemoprotective antimalarials” (2018).

System: Plasmodium berghei
Assay: Luciferase/luciferin-expressing antifolate-resistant parasites were used to infect a culture of HepG2 cells that were pre-incubated with compounds. Infected hepatocytes emit light due to the luciferase reaction. Assay results are presented as the percent inhibition of light emission compared to control. […]
Format: functional
Details: sporozoite; for IC90: read-out: LUCIFERASE INFECTION ASSAY - IC90
[1] = read-out: LUCIFERASE INFECTION ASSAY - IC50

| Structure (SMILES) | IC90 [µM] | IC50 [1] [µM] | other results |
| --- | --- | --- | --- |
| Cc1cccc(CN2CCC3(CC2)C(=O)N(Cc2ccccn2)C(=O)N3CCc2ccccc2)c1 | > 7.04 | – | IC50 (HEPG2TOX_HILL_SLOPE 1.55, HEPG2TOX_R_SQUARED 0.857, PBLUC_HILL_SLOPE 4.1, PBLUC_R_SQUARED 0.48, read-out: LUCIFERASE INFECTION ASSAY - IC50): 5.65 µM |
| CC(C)S(=O)(=O)c1csc(NC(=O)Nc2ccc(Cl)cc2)c1 | 3.33 | – | IC50 (PBLUC_HILL_SLOPE 17.2, PBLUC_R_SQUARED 0.385, read-out: LUCIFERASE INFECTION ASSAY - IC50): 2.93 µM |
| Cc1cnc(NC(=O)Nc2cccc(C(F)(F)F)c2)s1 | 3.82 | – | IC50 (FFLUC_HILL_SLOPE 11.7, FFLUC_R_SQUARED 0.144, HEPG2TOX_HILL_SLOPE 3.17, HEPG2TOX_R_SQUARED 0.951, PBLUC_HILL_SLOPE 13.6, PBLUC_R_SQUARED 0.664, read-out: LUCIFERASE INFECTION ASSAY - IC50): 3.25 µM |
| C/C(Cn1nnc(-c2ccc(C(F)(F)F)cc2)n1)=N\NC(N)=S | 3.45 | – | IC50 (HEPG2TOX_HILL_SLOPE 10.9, HEPG2TOX_R_SQUARED 0.527, PBLUC_HILL_SLOPE 12.4, PBLUC_R_SQUARED 0.37, read-out: LUCIFERASE INFECTION ASSAY - IC50): 2.89 µM |
| CCOC(=O)c1cnc2cc(Cl)c(F)cc2c1Sc1ccc(Cl)cc1 | > 8.33 | > 8.33 | – |
| Cc1c(C)c(C)c(S(=O)(=O)Oc2ccccc2N2CC(C)OC(C)C2)c(C)c1C (stereo not drawn) | > 7.9 | – | IC50 (PBLUC_HILL_SLOPE 5.73, PBLUC_R_SQUARED 0.021, read-out: LUCIFERASE INFECTION ASSAY - IC50): > 7.9 µM |
| CNC(=O)CN(c1cc(OCCOC)c(Cl)cc1Cl)S(=O)(=O)c1ccc(OC)cc1 | 0.87 | – | IC50 (HEPG2TOX_HILL_SLOPE 3.52, HEPG2TOX_R_SQUARED 0.986, PBLUC_HILL_SLOPE 18.4, PBLUC_R_SQUARED 0.669, read-out: LUCIFERASE INFECTION ASSAY - IC50): 0.771 µM |
| O=C(Cc1ccc(-c2ccccc2)cc1)NCc1cn2ccccc2n1 | > 10 | – | IC50 (PBLUC_HILL_SLOPE 15.5, PBLUC_R_SQUARED 0.301, read-out: LUCIFERASE INFECTION ASSAY - IC50): 8.96 µM |
| CS(=O)(=O)NCCc1ccc(C(=O)Nc2ccc(Cl)c(C(F)(F)F)c2)s1 | > 10 | – | IC50 (HEPG2TOX_HILL_SLOPE 16.3, HEPG2TOX_R_SQUARED 0.947, PBLUC_HILL_SLOPE 9.17, PBLUC_R_SQUARED 0.224, read-out: LUCIFERASE INFECTION ASSAY - IC50): 8.32 µM |
| CC1(CCc2ccccc2)NCC(c2ccc(Cl)cc2Cl)c2c1[nH]c1ccccc21 (stereo not drawn) | > 10 | – | IC50 (FFLUC_HILL_SLOPE 44.6, FFLUC_R_SQUARED 0.534, read-out: LUCIFERASE INFECTION ASSAY - IC50): > 10 µM |
| CN(C)S(=O)(=O)c1ccc2nnn(OCCCOc3ccc(C(C)(C)C)cc3)c2c1 | > 10 | > 10 | – |
| Cc1cc(=O)c(C(=O)Nc2cc(C(F)(F)F)ccc2N2CCCCC2)nn1-c1ccccc1Cl | > 10 | > 10 | – |
| CCC(C)c1ccc(NC(=O)c2ccc[nH]c2=S)cc1 (stereo not drawn) | > 10 | – | IC50 (FFLUC_HILL_SLOPE 16.3, FFLUC_R_SQUARED 0.684, PBLUC_HILL_SLOPE 0.824, PBLUC_R_SQUARED 0.804, read-out: LUCIFERASE INFECTION ASSAY - IC50): 7.03 µM |
| CCOc1cc(/C=C/C(=O)c2ccc3c(c2)OCCO3)cc(Br)c1OCC(=O)N(C)C | 9.9 | – | IC50 (PBLUC_HILL_SLOPE 4.45, PBLUC_R_SQUARED 0.571, read-out: LUCIFERASE INFECTION ASSAY - IC50): 6.04 µM |
| CN(Cc1ccsc1)c1nc(C(F)(F)F)nc2ccccc12 | > 10 | > 10 | – |
| COc1cc(NC(=O)c2sccc2Oc2ccccc2[N+](=O)[O-])c(Cl)cc1Cl | > 7.51 | > 7.51 | – |
| CCOc1ccc(-c2n[nH]c3c2C(c2ccccc2)N(c2ccccc2)C3=O)cc1 (stereo not drawn) | > 8.34 | – | IC50 (FFLUC_HILL_SLOPE 11.9, FFLUC_R_SQUARED 0.867, HEPG2TOX_HILL_SLOPE 2.22, HEPG2TOX_R_SQUARED 0.878, read-out: LUCIFERASE INFECTION ASSAY - IC50): > 8.34 µM |
| O=C(CN1CCN(Cc2nc3ccccc3s2)CC1)NN1C(=O)NC2(CCCCC2)C1=O | > 10 | > 10 | – |
| COc1ccc(OCCn2nc(-c3cccs3)c3ccccc3c2=O)cc1 | > 10 | 3.71 | – |
| COc1ccc(-c2cnc3cnc(-c4ccc(C(=O)NC5CC5)cc4)cn23)cc1 | 3.59 | – | IC50 (PBLUC_HILL_SLOPE 9.57, PBLUC_R_SQUARED 0.525, read-out: LUCIFERASE INFECTION ASSAY - IC50): 2.85 µM |
| CCC(CO)Nc1ccc2ncc(Br)n2n1 (stereo not drawn) | > 11.6 | – | IC50 (HEPG2TOX_HILL_SLOPE 18.2, HEPG2TOX_R_SQUARED 0.907, PBLUC_HILL_SLOPE 0.763, PBLUC_R_SQUARED 0.712, read-out: LUCIFERASE INFECTION ASSAY - IC50): 4.83 µM |
| COc1cc2nc(SCc3c(C)noc3C)n(CCC3=CCCCC3)c(=O)c2cc1OC | > 10 | > 10 | – |

| Structure (SMILES) | IC90 [µM] | IC50 [1] [µM] | other results |
| --- | --- | --- | --- |
| NC(=O)c1c(NC(=O)N2CCC(Cc3ccccc3)CC2)sc2c1CCC2 | > 8.6 | – | IC50 (HEPG2TOX_HILL_SLOPE 1.79, HEPG2TOX_R_SQUARED 0.702, PBLUC_HILL_SLOPE 1.44, PBLUC_R_SQUARED 0.101, read-out: LUCIFERASE INFECTION ASSAY - IC50): 3.57 µM |
| COc1ccc(OCCN2CCN(C(C)C(=O)Nc3sccc3C(N)=O)CC2)cc1 (stereo not drawn) | > 10 | > 10 | – |
| CCc1nc2ccc(C(=O)N3CCCCC3)cn2c1N(C)CCC(C)C | > 9.26 | > 9.26 | – |
| O=C(/C=C/c1ccc([N+](=O)[O-])cc1)NCC(=O)N1CCN(S(=O)(=O)c2ccc(Cl)cc2)CC1 | 0.04 | – | IC50 (HEPG2TOX_HILL_SLOPE 0.532, HEPG2TOX_R_SQUARED 0.824, PBLUC_HILL_SLOPE 10.3, PBLUC_R_SQUARED 0.421, read-out: LUCIFERASE INFECTION ASSAY - IC50): 0.0324 µM |
| Cc1cc(C)c(NC(=O)CNC(=O)c2ccc(-c3ccccc3)cc2)c(C)c1 | > 10 | – | IC50 (PBLUC_HILL_SLOPE 11.6, PBLUC_R_SQUARED 0.0183, read-out: LUCIFERASE INFECTION ASSAY - IC50): > 10 µM |
| O=C(NNC(=S)Nc1ccc(Cl)c(Cl)c1)c1cccn1-c1ccc(F)cc1 | 5.78 | – | IC50 (FFLUC_HILL_SLOPE 12.7, FFLUC_R_SQUARED 0.0579, HEPG2TOX_HILL_SLOPE 1.8, HEPG2TOX_R_SQUARED 0.871, PBLUC_HILL_SLOPE 2.85, PBLUC_R_SQUARED 0.299, read-out: LUCIFERASE INFECTION ASSAY - IC50): 2.67 µM |
| Cc1ccc(C(C)C)c(OCc2ccc(-c3nnco3)cc2)c1 | > 10 | > 10 | – |
| Cc1nc(C(=O)NNC(=O)c2ccc(Cl)cc2)cs1 | > 11.2 | – | IC50 (PBLUC_HILL_SLOPE 2.52, PBLUC_R_SQUARED 0.734, read-out: LUCIFERASE INFECTION ASSAY - IC50): > 11.2 µM |
| Cc1cc(-c2cc(C(=O)NCCN3CCOCC3)c3cnn(C(C)C)c3n2)c(C)s1 | > 10 | > 10 | – |
| CCc1ccccc1OCC(=O)Nc1cc(Cl)ccc1N1CCN(C)CC1 | > 10 | – | IC50 (FFLUC_HILL_SLOPE 16.4, FFLUC_R_SQUARED 0.269, read-out: LUCIFERASE INFECTION ASSAY - IC50): > 10 µM |
| N#Cc1ccc(NC(=O)NNc2ccc(Cl)cc2Cl)cc1 | > 10 | – | IC50 (PBLUC_HILL_SLOPE 16.6, PBLUC_R_SQUARED 0.338, read-out: LUCIFERASE INFECTION ASSAY - IC50): 9.59 µM |
| CCOC(=O)c1cnc(-c2ccccn2)nc1O | > 13.5 | – | IC50 (HEPG2TOX_HILL_SLOPE 12.4, HEPG2TOX_R_SQUARED 0.686, PBLUC_HILL_SLOPE 4.24, PBLUC_R_SQUARED 0.376, read-out: LUCIFERASE INFECTION ASSAY - IC50): 8.76 µM |
| O=C(NCCc1ccccn1)c1ccc(Cl)c(S(=O)(=O)N(Cc2ccccc2)c2cccc(C(F)(F)F)c2)c1 | 3.59 | – | IC50 (PBLUC_HILL_SLOPE 3, PBLUC_R_SQUARED 0.619, read-out: LUCIFERASE INFECTION ASSAY - IC50): 1.73 µM |
| O=C(CCSCc1cc(Cl)c2c(c1)OCO2)Nc1ccc(Cl)cc1F | > 10 | > 10 | – |
| CCOc1ccc(S(=O)(=O)Nc2ccccc2C(=O)Nc2nnc[nH]2)cc1 | > 10 | > 10 | – |
| Cc1cc(C(=O)ONC(=N)c2c(-c3c(Cl)cccc3Cl)noc2C)no1 | > 8.35 | – | IC50 (PBLUC_HILL_SLOPE 25.8, PBLUC_R_SQUARED 0.198, read-out: LUCIFERASE INFECTION ASSAY - IC50): 8.05 µM |
| CN(CC(=O)Nc1c(Cl)cccc1Cl)C(=O)c1ccccc1-c1nc2ccccc2s1 | 6.97 | – | IC50 (FFLUC_HILL_SLOPE 17.7, FFLUC_R_SQUARED 0.2, PBLUC_HILL_SLOPE 167, PBLUC_R_SQUARED 0.153, read-out: LUCIFERASE INFECTION ASSAY - IC50): 6.87 µM |
| COC(=O)c1ccc(OC(=O)c2cc3c(s2)CCC3)cc1 | > 10 | – | IC50 (FFLUC_HILL_SLOPE 8.2, FFLUC_R_SQUARED 0.68, read-out: LUCIFERASE INFECTION ASSAY - IC50): > 10 µM |
| COc1ccc2c(c1)nnc1nnc(SCC(=O)N3CCOCC3)n12 | > 9.16 | > 9.16 | – |
| O=C1/C(=C\c2ccccn2)N(Cc2ccccc2)S(=O)(=O)c2ccccc21 | 5.19 | 2.87 | – |
| Cc1cc(C)c(NC(=NC2CCCCC2)Nc2c(C)cc(C)cc2C)c(C)c1 | 9.33 | – | IC50 (PBLUC_HILL_SLOPE 26.1, PBLUC_R_SQUARED 0.486, read-out: LUCIFERASE INFECTION ASSAY - IC50): 8.58 µM |
| CSc1nnc(-c2csc(S(=O)(=O)Nc3ccccc3Cl)c2)n1C | > 8.23 | > 8.23 | – |
